From patent US20250011351A1, “[…] O-ACETYLPSILOCIN, SALTS AND SOLID STATE FORMS THEREOF” (Terran Biosciences Inc., priority 2021, published 2025) come the findings set out here.

Entries after “also recorded” stand apart in the source; their conditions may differ. Bounds are passed on as bounds.

One series has as its target T1, 5-HT2A receptors (Mus musculus, UniProt P35363).
T1 construct: from tissue; host or cells: whole living C57BL/6J mice (in vivo behavioural assay)
Kind of series: Psilocybin-induced head-twitch response in mice, antagonist given i.v. 7 min after psilocybin. In kind it is in vivo, C57BL/6J mice. Particulars: for effect on psilocybin-induced head-twitch response: cumulative head twitches until 40 min, groups of 3 mice; for effect on psilocybin-induced head twitch, summary of Examples 13-21: antagonist administered after psilocybin, compared to vehicle-treated mice, dose not restated; for Result (suppression of psilocybin-induced head twitch): 5HT2A antagonist i.v. at T=7 min.
Description: The head-shake response is elicited by a wide variety of known hallucinogens such as LSD, psilocybin, psilocin, N,N-dimethyltryptamine (DMT), and mescaline as well as serotonin-releasing agents and direct 5-HT2 agonists. […] Later studies have confirmed 5-HT2A receptors are the primary, direct mediators of the response and that the headshake response in rats is essentially the same as head-twitches in mice, at least in regards to similarity in appearance and 5-HT2A receptor dependence.
Male C57BL/6J mice (approximately 25 g) were group housed. Animals were maintained under a 12 h light/dark cycle, at 23° C. with humidity controlled.
(§1) At T=−60 min, C57BL/6J mice were individually housed into transparent observation cages with bedding removed and left to habituate. At T=−3 min, mice were placed into heated cages at 40° C. At T=0 h, groups of 3 mice were dosed intraperitoneally with psilocybin (2 mg/kg). Following dosing, mice were replaced into the heated cages and head-twitch responses continuously scored for 7 min. After 7 min, mice were intravenously dosed via the lateral tail vein with either vehicle 1 (saline) or volinanserin 1 mg/kg in 5 mL/kg dosing volumes. Mice were replaced into the observation cages and head twitch behavior were monitored until 40 min after agonist dosing. Cumulative head-twitches were measured every 2 minutes until 40 minutes after agonist dosing.
as §1, with “min. […]” for “min. After 7 min, mice were intravenously dosed via the lateral tail vein with either vehicle 1 (saline) or volinanserin 1 mg/kg in 5 mL/kg dosing volumes.”, “behavior was” for “behavior were”, “Cumulative head-twitch behavior was” for “Cumulative head-twitches were”
as §1, with “min. […]” for “min. After 7 min, mice were intravenously dosed via the lateral tail vein with either vehicle 1 (saline) or volinanserin 1 mg/kg in 5 mL/kg dosing volumes.”, “behavior was” for “behavior were”, “Cumulative head-twitch behavior was” for “Cumulative head-twitches were”
as §1, with “min. […]” for “min. After 7 min, mice were intravenously dosed via the lateral tail vein with either vehicle 1 (saline) or volinanserin 1 mg/kg in 5 mL/kg dosing volumes.”, “behavior was” for “behavior were”, “Cumulative head-twitch behavior was” for “Cumulative head-twitches were”
as §1, with “min. […]” for “min. After 7 min, mice were intravenously dosed via the lateral tail vein with either vehicle 1 (saline) or volinanserin 1 mg/kg in 5 mL/kg dosing volumes.”, “behavior was” for “behavior were”, “Cumulative head-twitch behavior was” for “Cumulative head-twitches were”
At T=−60 min, C57BL/6J mice were individually housed into transparent observation cages with bedding removed and left to habituate.

A short description of series [1]: Humidity exposure (RH jars, hygroscopicity test; handling at ambient humidity). The class given is physicochemical. The method, then: Solids deliquesced within approx. 1 hour of exposure to elevated relative humidity. The sample was capped and placed in a freezer for storage.
The mark [2] stands for this setting: antagonist 1 mg/kg i.v. 7 min after psilocybin 2 mg/kg i.p.
Setting [3] is: antagonist 4 mg/kg i.v. 7 min after psilocybin 2 mg/kg i.p.
[4] abbreviates: psilocybin 2 mg/kg i.p., head twitches scored to 40 min.

T1 sequence (P35363 whole entry): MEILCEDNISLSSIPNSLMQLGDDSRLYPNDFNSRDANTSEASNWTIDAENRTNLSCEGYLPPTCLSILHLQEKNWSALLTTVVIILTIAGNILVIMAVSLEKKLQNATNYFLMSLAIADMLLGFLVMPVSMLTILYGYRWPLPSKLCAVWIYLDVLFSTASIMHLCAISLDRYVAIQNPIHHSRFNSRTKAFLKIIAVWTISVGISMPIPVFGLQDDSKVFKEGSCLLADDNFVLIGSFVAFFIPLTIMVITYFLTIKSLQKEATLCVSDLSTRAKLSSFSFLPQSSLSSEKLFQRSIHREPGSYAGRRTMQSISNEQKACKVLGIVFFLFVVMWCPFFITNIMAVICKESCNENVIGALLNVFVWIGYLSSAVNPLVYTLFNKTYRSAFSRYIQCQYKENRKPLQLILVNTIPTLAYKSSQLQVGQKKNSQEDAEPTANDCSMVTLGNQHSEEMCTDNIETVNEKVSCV

Consider `COc1ccc(NC(=O)Nc2ccc(F)cc2F)cc1-c1c(Br)cnn1C` [nelotanserin], for which the “effect on psilocybin-induced head-twitch response” value on 5-HT2A receptors (setting [2]) is on record as “partially suppressed”; on 5-HT2A receptors (setting [3]) it was “completely suppressed; also recorded: completed suppressed”. For the same compound, the “effect on psilocybin-induced head twitch, summary of Examples 13-21” value (shortened to “effect on psilocybin-induced head twitch”) on 5-HT2A receptors is listed as “partial suppression”. The “Result (suppression of psilocybin-induced head twitch)” value at 5-HT2A receptors (setting [4]) was “Partial suppression of head twitch,”. Besides, the “Result (suppression of psilocybin-induced head twitch) at high dose” value on 5-HT2A receptors (psilocybin 2 mg/kg i.p., antagonist at high dose (4 mg/kg) i.v. at T=7 min, head twitches scored to 40 min) is on record as “full suppression at high dose”.
Turning to `CC(=O)Oc1cccc2[nH]cc(CCN(C)C)c12.O=C(O)/C=C\C(=O)O` [non-crystalline maleate salt, O-acetyl psilocin maleate], the “physical stability of the non-crystalline material” value in series [1] (ambient relative humidity (50% RH in summertime)) is given as “unstable”.
Consider `N#Cc1c[nH]c2c(C(=O)N3CCN(CCc4ccc(F)cc4)CC3)cccc12` [pruvanserin], for which the “effect on psilocybin-induced head-twitch response” value on 5-HT2A receptors (setting [2]) was “completely suppressed”. Moreover, on 5-HT2A receptors, the “effect on psilocybin-induced head twitch” value is given as “full ending”. At 5-HT2A receptors (setting [4]), the “Result (suppression of psilocybin-induced head twitch)” value is “Full suppression of head twitch”.
With `CC(=O)Oc1cccc2[nH]cc(CCN(C)C)c12.O=P(O)(O)O` [phosphate salt (Forms A+B), O-acetyl psilocin phosphate], the deliquescence result in series [1] (65% RH) is “deliquesce”. Further, the hygroscopicity entry in series [1] (evaluation using RH jars) is recorded as “low”.
Regarding `O=C(c1ccc(F)cc1)C1CCN(CCn2c(=O)[nH]c3ccccc3c2=O)CC1` [ketanserin], the “effect on psilocybin-induced head-twitch response” value on 5-HT2A receptors (antagonist 2 mg/kg i.v. 7 min after psilocybin 2 mg/kg i.p.) is reported as “completely suppressed”.
For the compound `Cc1nc2sccn2c(=O)c1CCN1CCC(=C(c2ccc(F)cc2)c2ccc(F)cc2)CC1` [ritanserin], the “effect on psilocybin-induced head-twitch response” value on 5-HT2A receptors (setting [2]) is on record as “completely suppressed”. For the same compound, the “effect on psilocybin-induced head twitch” value at 5-HT2A receptors is given as “full ending”. Moreover, at 5-HT2A receptors (setting [4]), the “Result (suppression of psilocybin-induced head twitch)” value is on record as “Full suppression of head twitch”.
For `O=c1[nH]c2ccccc2n1CCN1CCN(c2cccc(C(F)(F)F)c2)CC1` [flibanserin], the “effect on psilocybin-induced head-twitch response” value at 5-HT2A receptors (setting [2]) and at 5-HT2A receptors (setting [3]) was “partially suppressed” each time. For the same compound, on 5-HT2A receptors, the “effect on psilocybin-induced head twitch” value was “partial suppression”. The “Result (suppression of psilocybin-induced head twitch)” value on 5-HT2A receptors (setting [4]) is reported as “Partial suppression of head twitch”.
For `COc1cccc([C@H](O)C2CCN(CCc3ccc(F)cc3)CC2)c1OC` [volinanserin], on 5-HT2A receptors (setting [2]), the “effect on psilocybin-induced head-twitch response” value is listed as “completely suppressed”. Also, the “effect on psilocybin-induced head twitch” value on 5-HT2A receptors is “full ending”. Further, the “Result (suppression of psilocybin-induced head twitch)” value on 5-HT2A receptors (setting [4]) was “Full suppression of head twitch”.
Consider Psilocybin Mesylate, for which the “behaviour when handled at ambient humidity” value in series [1] (ambient humidity (~50-60%)) was “became tacky and deliquesced”.
With `CC(=O)Oc1cccc2[nH]cc(CCN(C)C)c12.Cl` [O-acetyl psilocin hydrochloride], the time to deliquescence in series [1] (open vial inside a 75% RH jar (hygroscopicity test)) was at most 1 h.
